From patent US9994576B2, “Substituted pyrazolo[3,4-d]pyrimidines as kinase inhibitors” (PRINCIPIA BIOPHARMA INC., priority 2012, dated 2018)

Target: protein target (Homo sapiens (Human), UniProt Q06187)
Assay: Reversibility of binding (compound in solution before/after denaturation or digestion of target, HPLC-MS/MS)
Conditions: native (folded) target in excess over compound
Protocol: The following approach was developed to differentiate compounds that form irreversible covalent bond with their targets, such as non-cyano containing acrylamide compounds, from compound that form reversible covalent bond i.e., compounds and/or pharmaceutically acceptable salts of the present disclosure. […] The reactions were then treated with perturbations including both denaturation with 5 M guanidine hydrochloride and digestion with trypsin, disrupting proper folding of the target. […] The concentration of compound in solution was assessed both preceding and following perturbation using high performance liquid chromatography (HPLC) coupled to tandem mass spectrometry.

protein target, sequence (Q06187 whole entry): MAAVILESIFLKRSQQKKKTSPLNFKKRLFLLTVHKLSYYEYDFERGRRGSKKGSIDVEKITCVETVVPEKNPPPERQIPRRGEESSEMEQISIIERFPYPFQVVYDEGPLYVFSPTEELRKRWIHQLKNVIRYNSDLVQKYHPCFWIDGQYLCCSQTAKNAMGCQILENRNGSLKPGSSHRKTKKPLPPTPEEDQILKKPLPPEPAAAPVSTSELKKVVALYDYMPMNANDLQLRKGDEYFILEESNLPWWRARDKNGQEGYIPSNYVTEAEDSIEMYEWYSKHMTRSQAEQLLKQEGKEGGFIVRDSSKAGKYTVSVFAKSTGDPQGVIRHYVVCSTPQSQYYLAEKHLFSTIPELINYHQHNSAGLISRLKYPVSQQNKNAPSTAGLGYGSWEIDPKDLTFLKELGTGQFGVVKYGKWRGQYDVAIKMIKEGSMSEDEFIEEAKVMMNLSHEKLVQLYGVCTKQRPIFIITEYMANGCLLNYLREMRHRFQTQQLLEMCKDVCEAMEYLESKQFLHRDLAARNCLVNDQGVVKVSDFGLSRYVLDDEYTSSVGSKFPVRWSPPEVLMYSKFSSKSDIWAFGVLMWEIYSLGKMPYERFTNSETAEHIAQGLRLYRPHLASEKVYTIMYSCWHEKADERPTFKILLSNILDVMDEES

CN(C1COC1)C(C)(C)C=C(C#N)C(=O)N1CCC[C@H]1Cn1nc(-c2ccc(Oc3ccccc3)cc2F)c2c(N)ncnc21 [Example 10, 2-[(2S)-2-[[4-amino-3-(2-fluoro-4-phenoxy-phenyl)pyrazolo[3,4-d]pyrimidin-1-yl]methyl]pyrrolidine-1-carbonyl]-4-methyl-4-[methyl(oxetan-3-yl)amino]pent-2-enenitrile]
Compound in solution in the native state?: no
